Assay results: patent US20250325534A1, “MICROBIOCIDAL TETRAHYDROISOQUINOLINE DERIVATIVES” (SYNGENTA CROP PROTECTION AG, priority 2021, published 2025)

test system: Mycosphaerella graminicola; assay: Mycosphaerella graminicola (Septoria tritici) / liquid culture (Septoria blotch); format: cell-based; conditions: Zymoseptoria tritici, 96 h, photometrically 4-5 days after application, read-out: control of Mycosphaerella graminicola
Experimental: Example B19: Mycosphaerella graminicola (Septoria tritici)/Liquid Culture (Septoria Blotch) Conidia of the fungus from cryogenic storage are directly mixed into a nutrient broth (potato dextrose broth). After placing a DMSO solution of test compound into a microtiter plate (96-well format), the nutrient broth containing the fungal spores is added. The test plates are incubated at 24° C. and the inhibition of growth is determined photometrically 4-5 days after application.

Row | SMILES | inhibition of growth at 20 ppm
1 | Cn1cc(C2CN(C(=O)c3cc(-c4ccc(F)cc4F)on3)C(c3ccccc3)c3ccccc32)cn1 (stereo not shown) [Compound P-43, [5-(2,4-difluorophenyl)isoxazol-3-yl]-[4-(1-methylpyrazol-4-yl)-1-phenyl-3,4-dihydro-1H-isoquinolin-2-yl]methanone] | ≥ 80%
2 | Cn1cc(C2CN(C(=O)c3ncc(C4CC4)o3)Cc3ccccc32)cn1 (stereo not shown) [Compound P-68, (5-cyclopropyloxazol-2-yl)-[4-(1-methylpyrazol-4-yl)-3,4-dihydro-1H-isoquinolin-2-yl]methanone] | ≥ 80%
3 | CC1c2ccc(O)cc2C(C)(c2cnn(C)c2)CN1C(=O)c1cc(-c2ccccc2)on1 (stereo not shown) [Compound P-29, [6-hydroxy-1,4-dimethyl-4-(1-methylpyrazol-4-yl)-1,3-dihydroisoquinolin-2-yl]-(5-phenylisoxazol-3-yl)methanone] | ≥ 80%
4 | CCc1nnc(C(=O)N2Cc3ccccc3C(c3cnn(C)c3C)C2)s1 (stereo not shown) [Compound P-244, [4-(1,5-dimethylpyrazol-4-yl)-3,4-dihydro-1H-isoquinolin-2-yl]-(5-ethyl-1,3,4-thiadiazol-2-yl)methanone] | ≥ 80%
5 | CC(C)C1(c2cnn(C)c2)CN(C(=O)c2cc(-c3ccc(F)cc3F)on2)Cc2ccccc21 (stereo not shown) [Compound P-219, [5-(2,4-difluorophenyl)isoxazol-3-yl]-[4-isopropyl-4-(1-methylpyrazol-4-yl)-1,3-dihydroisoquinolin-2-yl]methanone] | ≥ 80%
6 | Cn1cc(C2CN(C(=O)c3cc(-c4ccc(F)cc4F)on3)Cc3ccc(C(F)(F)F)cc32)cn1 (stereo not shown) [Compound P-112, [5-(2,4-difluorophenyl)isoxazol-3-yl]-[4-(1-methylpyrazol-4-yl)-6-(trifluoromethyl)-3,4-dihydro-1H-isoquinolin-2-yl]methanone] | ≥ 80%
7 | Cn1cc(C2CN(C(=O)c3cc(C(C)(C)C)on3)Cc3ccccc32)cn1 (stereo not shown) [Compound P-195, (5-tert-butylisoxazol-3-yl)-[4-(1-methylpyrazol-4-yl)-3,4-dihydro-1H-isoquinolin-2-yl]methanone] | ≥ 80%
8 | CC1c2ccc(OCC(F)(F)F)cc2C(C)(c2cnn(C)c2)CN1C(=O)c1cc(-c2ccccc2)on1 (stereo not shown) [Compound P-27, [1,4-dimethyl-4-(1-methylpyrazol-4-yl)-6-(2,2,2-trifluoroethoxy)-1,3-dihydroisoquinolin-2-yl]-(5-phenylisoxazol-3-yl)methanone] | ≥ 80%
9 | CCC(C)c1cc(C(=O)N2Cc3ccccc3C(c3cnn(C)c3)C2)on1 (stereo not shown) [Compound P-88, [4-(1-methylpyrazol-4-yl)-3,4-dihydro-1H-isoquinolin-2-yl]-(3-sec-butylisoxazol-5-yl)methanone] | ≥ 80%
10 | CCn1nc(C)c(C2CN(C(=O)c3cc(-c4ccc(F)cc4F)on3)Cc3ccccc32)c1C (stereo not shown) [Compound P-116, [5-(2,4-difluorophenyl)isoxazol-3-yl]-[4-(1-ethyl-3,5-dimethyl-pyrazol-4-yl)-3,4-dihydro-1H-isoquinolin-2-yl]methanone] | ≥ 80%
11 | Cn1cc(C2CN(C(=O)c3noc(-c4cc(F)ccc4F)n3)Cc3ccccc32)cn1 (stereo not shown) [Compound P-90, [5-(2,5-difluorophenyl)-1,2,4-oxadiazol-3-yl]-[4-(1-methylpyrazol-4-yl)-3,4-dihydro-1H-isoquinolin-2-yl]methanone] | ≥ 80%
12 | Cn1cc(C2CN(C(=O)c3coc(-c4ccccc4)c3)Cc3ccccc32)cn1 (stereo not shown) [Compound P-147, [4-(1-methylpyrazol-4-yl)-3,4-dihydro-1H-isoquinolin-2-yl]-(5-phenyl-3-furyl)methanone] | ≥ 80%
13 | C[C@@H]1c2ccccc2[C@](C)(c2cnn(C)c2)CN1C(=O)c1cc(-c2ccc(F)cc2F)on1 (single isomer, unassigned) [Compound P-7] | ≥ 80%
